One data set addresses Cathepsin B (Homo sapiens, UniProt P07858).
For a further data set, the target named is Papain (Carica papaya, UniProt P00784). Kind of data set: The apparent binding affinity against Papain. Conditions: read-out: Ki app.
The next data set has as its target Procathepsin L (Homo sapiens, UniProt P07711).
The nature of data set [1]: Partition coefficient (logP). Particulars: octanol/water; read-out: logP. The format is physicochemical.
A short description of data set [2]: Binding affinity against plasmepsin. Set-up: species or system Plasmodium falciparum.
Data set [3] can be described thus: oral bioavailability in dogs and monkeys. The format is ADME, organism-based, Canis lupus familiaris. Particulars: dog, in vivo, read-out: Bioavailabiility.
Data set [4] has as its target Matrix metalloproteinase-9 (Homo sapiens, UniProt P14780).
A further data set has as its target Neutrophil collagenase (Homo sapiens, UniProt P22894). Put plainly: Inhibition of matrix metalloprotease-8 (MMP-8).
The target of data set [5] is 72 kDa type IV collagenase (Homo sapiens, UniProt P08253).
Data set [6] deals with T1, Human rhinovirus A protease (Human rhinovirus sp., UniProt Q4U254).
T1 sequence (Q4U254 whole entry): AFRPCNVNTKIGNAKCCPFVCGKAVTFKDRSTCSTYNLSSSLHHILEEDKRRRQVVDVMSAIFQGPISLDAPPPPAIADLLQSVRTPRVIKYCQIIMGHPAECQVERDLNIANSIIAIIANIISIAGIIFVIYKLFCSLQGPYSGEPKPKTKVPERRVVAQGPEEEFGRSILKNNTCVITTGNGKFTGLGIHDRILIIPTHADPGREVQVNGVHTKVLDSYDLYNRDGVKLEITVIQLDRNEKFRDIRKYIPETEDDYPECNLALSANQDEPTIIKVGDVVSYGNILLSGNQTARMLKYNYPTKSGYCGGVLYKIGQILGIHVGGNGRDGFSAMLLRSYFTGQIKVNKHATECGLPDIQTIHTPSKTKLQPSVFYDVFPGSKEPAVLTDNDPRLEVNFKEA
Kind of data set: Effective concentration against human rhinovirus 3C protease.

The target in data set [7] is T2, Disintegrin and metalloproteinase domain-containing protein 17 (Homo sapiens, UniProt P78536). Put plainly: Inhibitory activity against Tumor necrosis factor alpha-converting enzyme (TACE) with respect to matrix metalloprotease-1 (MMP-1).
Data set [8] deals with T2, Disintegrin and metalloproteinase domain-containing protein 17. Put plainly: Inhibition against Tumor necrosis factor alpha-converting enzyme (TACE) at 1 uM in human monocytes. The format is cell-based.
Data set [9] is described as follows: The inhibition against liver metastases at 100 ug/mL. The format is ADME, tissue-based.
The target in data set [10] is T3, Cathepsin D (Homo sapiens, UniProt P07339). Put plainly: Inhibitory concentration against human cathepsin D.
Data set [11] in a line: oral bioavailability in marmosets. Particulars: callithrix, in vivo, read-out: Bioavailabiility. The format is ADME, organism-based.
Data set [12] in a line: Oral bioavailability in dog. The format is ADME, organism-based, Canis lupus familiaris. Conditions: in vivo.
A short description of data set [13]: oral bioavailability in cynomolgus monkeys. Format: ADME, organism-based, Macaca fascicularis. Particulars: cynomolgus monkey, in vivo, read-out: Bioavailabiility.
A short description of data set [14]: Half life in dogs. The format is ADME, organism-based, Canis lupus familiaris. Particulars: dog, in vivo.
The next data set has as its target Pepsin A (Sus scrofa, UniProt P00791). Put plainly: Inhibitory concentration against porcine pepsin.
Data set [15] concerns the target T4, Renin (Homo sapiens, UniProt P00797).
T4 sequence (P00797 whole entry): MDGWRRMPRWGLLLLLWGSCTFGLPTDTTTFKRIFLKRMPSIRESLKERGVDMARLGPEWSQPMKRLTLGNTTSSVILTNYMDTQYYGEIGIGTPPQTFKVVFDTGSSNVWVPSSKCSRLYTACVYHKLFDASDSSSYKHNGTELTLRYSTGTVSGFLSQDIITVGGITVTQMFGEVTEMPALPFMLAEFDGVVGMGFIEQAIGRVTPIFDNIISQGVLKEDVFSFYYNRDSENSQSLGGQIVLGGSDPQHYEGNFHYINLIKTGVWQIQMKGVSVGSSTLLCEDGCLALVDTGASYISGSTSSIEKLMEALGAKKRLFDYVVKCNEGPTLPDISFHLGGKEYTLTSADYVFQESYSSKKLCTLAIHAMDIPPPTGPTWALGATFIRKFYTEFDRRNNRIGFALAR

The next data set concerns the target Plasmepsin II (Plasmodium falciparum, UniProt P46925). Kind of data set: Inhibitory concentration for Plasmodium falciparum plasmepsin-2.
Data set [16] deals with T3, Cathepsin D.
The species named for the next data set is Homo sapiens. Kind of data set: Half life in humans. The format is ADME, organism-based. Particulars: in vivo.
Data set [17] concerns the target T3, Cathepsin D. Put plainly: Inhibitory concentration against cathepsin D.
Data set [18] in a line: Inhibitory concentration against several aspartic proteases of Candida albicans.
Data set [19] deals with T4, Renin. Put plainly: Inhibitory concentration against renin.
The next data set addresses Plasmepsin I (Plasmodium falciparum, UniProt P39898). Kind of data set: Inhibitory concentration for Plasmodium falciparum plasmepsin-1.
Data set [20] deals with Plasmepsin II (Plasmodium falciparum) (UniProt P46925). Kind of data set: Inhibition of Plasmodium falciparum plasmepsin-2 at 10 uM.
Data set [21] is described as follows: Inhibitory concentration against the live parasite in preventing hemoglobin degradation. The format is functional.
Data set [22] is described as follows: Oral bioavailability in rats at the dose of 10 mg/kg po. Format: ADME, organism-based. Conditions: rat, in vivo, read-out: Bioavailabiility.
Data set [23] is described as follows: Tmax value of the compound. The format is ADME.
A short description of data set [24]: Plasma half life at the dose of 5 mg/kg iv. Format: ADME, organism-based. Also noted: dose 5 mg/kg.
The nature of data set [25]: Cmax value in the period of 0-24 hr after dosing. Particulars: in vivo. The format is ADME, organism-based.
A short description of data set [26]: Cmax value of the compound. The format is ADME, organism-based. Particulars: in vivo.
Another data set relates to Enterovirus. Put plainly: Inhibitory activity against the different replication of HRV serotypes and related piocornaviruses A21 and B3, enterovirus 70 and echo virus 11. Format: functional, organism-based.
For a further data set, the target named is T5, Caspase-1 (Homo sapiens, UniProt P29466).
T5 sequence (P29466 whole entry): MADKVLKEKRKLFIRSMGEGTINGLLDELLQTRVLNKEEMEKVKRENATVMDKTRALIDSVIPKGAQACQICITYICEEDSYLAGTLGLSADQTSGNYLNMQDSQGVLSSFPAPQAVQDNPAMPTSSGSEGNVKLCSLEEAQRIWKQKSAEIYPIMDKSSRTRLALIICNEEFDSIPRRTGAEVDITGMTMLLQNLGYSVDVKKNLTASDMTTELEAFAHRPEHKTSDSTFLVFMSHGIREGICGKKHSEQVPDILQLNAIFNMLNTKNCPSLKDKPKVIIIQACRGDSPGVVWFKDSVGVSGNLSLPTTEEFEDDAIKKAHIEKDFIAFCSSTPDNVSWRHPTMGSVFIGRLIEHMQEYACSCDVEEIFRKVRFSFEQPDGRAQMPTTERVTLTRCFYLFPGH

The target of the next data set is Caspase-3 (Homo sapiens, UniProt P42574). Kind of data set: Inhibitory activity against caspase-3.
A short description of data set [27]: Inhibitory concentration against SAP.
Data set [28] has as its target T4, Renin. Kind of data set: Inhibitory concentration against renin..

SMILES strings stand for the structures. Non-standard residues stand in square brackets, D forms with d. Residues, ends and D or L forms follow the SMILES beside them. *: point of attachment. Cbz = O=C(OCc1ccccc1)*; Dap = NC[C@H](N)C(=O)O

T3 sequence (P07339 65-162 limits assumed): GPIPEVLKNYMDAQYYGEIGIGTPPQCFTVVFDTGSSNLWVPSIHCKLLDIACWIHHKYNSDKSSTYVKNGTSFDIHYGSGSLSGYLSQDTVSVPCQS
T3 sequence (P07339 169-412 limits assumed): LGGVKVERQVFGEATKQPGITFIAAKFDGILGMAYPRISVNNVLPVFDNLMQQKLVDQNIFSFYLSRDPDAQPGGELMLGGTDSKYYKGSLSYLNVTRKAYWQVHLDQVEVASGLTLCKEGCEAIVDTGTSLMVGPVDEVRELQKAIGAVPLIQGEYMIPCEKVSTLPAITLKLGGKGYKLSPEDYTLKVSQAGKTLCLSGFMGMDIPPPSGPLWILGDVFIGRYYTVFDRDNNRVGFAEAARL
T2 sequence (P78536 whole entry, the tested form may be a part): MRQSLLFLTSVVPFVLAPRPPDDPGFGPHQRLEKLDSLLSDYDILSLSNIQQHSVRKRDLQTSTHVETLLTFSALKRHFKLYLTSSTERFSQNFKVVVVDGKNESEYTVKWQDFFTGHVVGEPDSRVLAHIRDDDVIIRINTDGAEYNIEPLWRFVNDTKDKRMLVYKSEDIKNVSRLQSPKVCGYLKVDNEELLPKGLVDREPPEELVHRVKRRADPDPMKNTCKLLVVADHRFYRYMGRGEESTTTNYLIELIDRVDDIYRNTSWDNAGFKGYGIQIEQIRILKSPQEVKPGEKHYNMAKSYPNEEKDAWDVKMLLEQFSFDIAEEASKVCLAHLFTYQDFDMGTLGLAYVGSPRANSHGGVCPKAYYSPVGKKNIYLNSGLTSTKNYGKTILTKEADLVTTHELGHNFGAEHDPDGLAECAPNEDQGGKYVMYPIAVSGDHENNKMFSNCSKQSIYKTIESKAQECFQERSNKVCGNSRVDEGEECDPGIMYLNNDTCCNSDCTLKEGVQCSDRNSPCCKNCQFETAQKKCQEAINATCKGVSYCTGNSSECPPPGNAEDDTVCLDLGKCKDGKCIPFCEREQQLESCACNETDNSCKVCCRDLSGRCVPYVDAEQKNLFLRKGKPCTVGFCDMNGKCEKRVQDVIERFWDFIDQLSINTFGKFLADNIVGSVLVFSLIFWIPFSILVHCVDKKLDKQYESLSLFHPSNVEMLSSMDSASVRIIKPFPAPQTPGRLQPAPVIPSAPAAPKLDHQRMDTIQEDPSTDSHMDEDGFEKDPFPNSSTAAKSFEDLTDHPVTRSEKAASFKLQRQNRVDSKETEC
Chain of Procathepsin L (P07711 whole entry): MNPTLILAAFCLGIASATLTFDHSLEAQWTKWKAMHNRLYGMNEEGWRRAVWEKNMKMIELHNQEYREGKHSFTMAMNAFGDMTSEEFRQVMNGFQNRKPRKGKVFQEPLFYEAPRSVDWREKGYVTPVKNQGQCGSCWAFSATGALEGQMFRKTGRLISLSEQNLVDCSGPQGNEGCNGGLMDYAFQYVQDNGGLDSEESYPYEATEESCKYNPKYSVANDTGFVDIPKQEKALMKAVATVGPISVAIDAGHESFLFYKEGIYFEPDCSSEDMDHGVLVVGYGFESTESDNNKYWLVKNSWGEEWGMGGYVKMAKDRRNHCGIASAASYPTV
Chain of Plasmepsin II (P46925 whole entry): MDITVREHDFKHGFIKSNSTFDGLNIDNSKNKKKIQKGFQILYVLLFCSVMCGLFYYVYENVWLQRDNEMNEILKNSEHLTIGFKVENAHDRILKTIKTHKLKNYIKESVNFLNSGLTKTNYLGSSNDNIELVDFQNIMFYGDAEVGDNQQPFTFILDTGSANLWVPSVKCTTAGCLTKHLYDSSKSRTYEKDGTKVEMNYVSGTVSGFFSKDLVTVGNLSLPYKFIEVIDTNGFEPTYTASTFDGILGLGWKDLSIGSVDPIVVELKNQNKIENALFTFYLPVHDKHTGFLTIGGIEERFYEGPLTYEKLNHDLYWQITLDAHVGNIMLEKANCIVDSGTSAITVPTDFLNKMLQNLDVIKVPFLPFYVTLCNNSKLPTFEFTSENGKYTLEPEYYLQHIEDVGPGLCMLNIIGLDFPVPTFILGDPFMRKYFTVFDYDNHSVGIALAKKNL
Chain of Plasmepsin II (Plasmodium falciparum) (P46925 125-453 limits assumed): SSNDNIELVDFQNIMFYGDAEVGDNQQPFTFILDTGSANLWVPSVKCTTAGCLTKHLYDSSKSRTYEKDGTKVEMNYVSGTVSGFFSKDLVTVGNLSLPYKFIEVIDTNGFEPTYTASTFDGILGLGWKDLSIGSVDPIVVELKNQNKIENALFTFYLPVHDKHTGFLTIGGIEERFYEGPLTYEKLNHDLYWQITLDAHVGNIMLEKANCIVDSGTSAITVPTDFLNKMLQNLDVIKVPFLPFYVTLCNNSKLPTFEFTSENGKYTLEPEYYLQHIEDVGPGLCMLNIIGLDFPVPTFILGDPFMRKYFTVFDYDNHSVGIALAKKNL
Chain of Neutrophil collagenase (P22894 whole entry): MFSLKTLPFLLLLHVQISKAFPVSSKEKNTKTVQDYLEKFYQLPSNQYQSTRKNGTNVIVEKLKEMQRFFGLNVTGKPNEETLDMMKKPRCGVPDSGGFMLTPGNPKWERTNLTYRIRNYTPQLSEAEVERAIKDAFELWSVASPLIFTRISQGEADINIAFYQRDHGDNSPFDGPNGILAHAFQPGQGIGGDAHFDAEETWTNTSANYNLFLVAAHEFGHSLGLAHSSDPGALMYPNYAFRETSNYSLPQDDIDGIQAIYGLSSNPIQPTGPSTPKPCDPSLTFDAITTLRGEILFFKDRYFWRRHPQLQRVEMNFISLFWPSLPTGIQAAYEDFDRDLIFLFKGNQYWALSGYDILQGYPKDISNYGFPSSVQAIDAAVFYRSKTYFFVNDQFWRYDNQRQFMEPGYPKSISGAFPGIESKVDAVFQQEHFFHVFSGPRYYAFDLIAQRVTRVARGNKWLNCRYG
Chain of Papain (P00784 whole entry): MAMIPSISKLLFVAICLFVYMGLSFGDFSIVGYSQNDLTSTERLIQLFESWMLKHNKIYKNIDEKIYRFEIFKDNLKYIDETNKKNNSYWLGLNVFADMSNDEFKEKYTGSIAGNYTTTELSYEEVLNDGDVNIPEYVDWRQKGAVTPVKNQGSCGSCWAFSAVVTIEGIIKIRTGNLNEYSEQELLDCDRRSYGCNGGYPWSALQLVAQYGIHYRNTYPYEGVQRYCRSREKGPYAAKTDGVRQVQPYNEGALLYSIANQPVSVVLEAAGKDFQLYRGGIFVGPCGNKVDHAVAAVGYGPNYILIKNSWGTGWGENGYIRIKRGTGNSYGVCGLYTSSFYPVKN
Chain of Matrix metalloproteinase-9 (P14780 whole entry): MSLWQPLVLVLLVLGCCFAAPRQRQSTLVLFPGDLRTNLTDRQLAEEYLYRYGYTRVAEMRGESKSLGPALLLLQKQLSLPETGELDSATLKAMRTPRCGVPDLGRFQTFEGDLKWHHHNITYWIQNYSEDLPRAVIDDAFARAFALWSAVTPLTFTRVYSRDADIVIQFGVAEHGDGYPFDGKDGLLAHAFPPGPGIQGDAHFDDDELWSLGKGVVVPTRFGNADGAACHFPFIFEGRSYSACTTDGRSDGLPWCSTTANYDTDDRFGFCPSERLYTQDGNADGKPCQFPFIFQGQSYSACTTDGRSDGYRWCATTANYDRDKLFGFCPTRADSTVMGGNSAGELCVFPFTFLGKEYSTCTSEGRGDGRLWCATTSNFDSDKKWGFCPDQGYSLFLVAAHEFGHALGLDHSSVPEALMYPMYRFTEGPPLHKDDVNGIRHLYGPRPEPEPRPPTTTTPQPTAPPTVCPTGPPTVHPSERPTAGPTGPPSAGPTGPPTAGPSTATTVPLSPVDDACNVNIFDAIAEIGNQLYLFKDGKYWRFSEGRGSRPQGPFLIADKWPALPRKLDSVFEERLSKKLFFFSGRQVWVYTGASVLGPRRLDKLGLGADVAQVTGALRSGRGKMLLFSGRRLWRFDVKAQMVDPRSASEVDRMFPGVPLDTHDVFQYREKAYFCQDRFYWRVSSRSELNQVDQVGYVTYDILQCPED
Chain of Pepsin A (P00791 whole entry): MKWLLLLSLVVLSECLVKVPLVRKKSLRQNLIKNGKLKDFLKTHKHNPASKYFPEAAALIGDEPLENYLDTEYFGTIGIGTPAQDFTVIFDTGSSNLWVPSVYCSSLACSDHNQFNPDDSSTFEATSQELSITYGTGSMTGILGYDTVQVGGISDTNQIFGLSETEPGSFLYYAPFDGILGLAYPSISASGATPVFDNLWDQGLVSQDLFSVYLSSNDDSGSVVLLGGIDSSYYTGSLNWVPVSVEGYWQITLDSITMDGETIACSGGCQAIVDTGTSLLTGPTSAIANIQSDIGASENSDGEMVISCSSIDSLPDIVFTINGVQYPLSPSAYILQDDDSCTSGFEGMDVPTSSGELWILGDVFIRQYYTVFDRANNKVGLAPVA
Chain of Plasmepsin I (P39898 whole entry): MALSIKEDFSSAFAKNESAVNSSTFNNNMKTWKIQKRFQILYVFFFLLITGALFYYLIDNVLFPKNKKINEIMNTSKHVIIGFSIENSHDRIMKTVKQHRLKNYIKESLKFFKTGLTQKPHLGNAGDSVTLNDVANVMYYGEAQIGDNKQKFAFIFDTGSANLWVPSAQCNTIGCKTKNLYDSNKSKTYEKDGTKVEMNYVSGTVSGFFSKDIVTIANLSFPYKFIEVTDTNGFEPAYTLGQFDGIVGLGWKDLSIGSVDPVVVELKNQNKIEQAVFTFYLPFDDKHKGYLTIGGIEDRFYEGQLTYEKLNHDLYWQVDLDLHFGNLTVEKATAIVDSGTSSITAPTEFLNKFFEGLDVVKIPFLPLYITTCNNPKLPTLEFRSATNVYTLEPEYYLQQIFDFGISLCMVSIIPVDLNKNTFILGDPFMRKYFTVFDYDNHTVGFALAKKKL
Chain of Caspase-3 (P42574 29-175 limits assumed): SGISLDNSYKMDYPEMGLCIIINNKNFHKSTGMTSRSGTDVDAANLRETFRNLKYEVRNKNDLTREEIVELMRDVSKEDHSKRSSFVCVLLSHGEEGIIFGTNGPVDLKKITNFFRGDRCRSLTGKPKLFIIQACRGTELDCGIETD
Chain of Caspase-3 (P42574 176-277 limits assumed): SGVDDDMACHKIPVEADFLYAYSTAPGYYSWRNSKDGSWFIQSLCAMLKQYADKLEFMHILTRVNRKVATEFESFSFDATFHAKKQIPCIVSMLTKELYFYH

For `CC(C)C[C@H](NC(=O)OCc1ccccc1)C(=O)NCC(=O)CNC(=O)[C@H](CC(C)C)NC(=O)OCc1ccccc1`, the figures for the Ki at Cathepsin B, at Papain and on Procathepsin L were 1300 nM, above 10000 nM and 340 nM, respectively.

Usually logP stands for the decadic logarithm of the partition coefficient of the neutral form, usually between octanol and water. With `COc1ccc(CCN(C[C@H](O)[C@H](Cc2ccccc2)NC(=O)COc2cccc(Cl)c2)C(=O)C2CCNCC2)cc1`, the logP in data set [1] worked out at 3.71. Further, the Ki in [2] was determined as 4.3 nM.

Regarding `CN1CCN=C1c1cccc(Oc2nc(Oc3cc(C(=N)N)ccc3O)c(F)c(N(C)CC(=O)O)c2F)c1` [FIDEXABAN], the bioavailability in [3] stood at 20%.

Take `CN1C(=O)N(C[C@H](C(=O)NO)[C@@H](CC2CCCC2)C(=O)N2CCCCC2)C(=O)C1(C)C`: the results for the Ki (in data set [4]; on Neutrophil collagenase; in data set [5]) were 59 nM, 4 nM and 154 nM, respectively.

One may read the EC50 as the concentration needed to bring the measured effect to its halfway point. Lower therefore signals a more potent agent. As for `CCOC(=O)/C=C/[C@H](CCC(N)=O)NC(=O)[C@H](Cc1ccc(C)cc1)NC(=O)[C@@H](NC(=O)SC1CCCC1)C(C)(C)C`, in data set [6], the EC50 stood at 56 nM. This lies in the double-digit nanomolar range.

As a reminder, the IC50 is the concentration that gives 50% inhibition. The term inhibition denotes the percentage by which the read-out fell short of the control. Read a low inhibition as a response near the control. In the case of `C#CCSC[C@H](C(=O)NO)[C@@H](CC(C)C)C(=O)N[C@@H](Cc1ccccc1)C(=O)NC`, in data set [7], the IC50 was above 10000 nM. In [8], this compound registered an inhibition of 83%.

Broadly, the Inhibition is the relative decrease from the control value, in per cent. Read a low Inhibition as little suppression. As to `CC(C)C[C@H](NC(=O)[C@H]1O[C@@H]1C(=O)O)C(=O)NCCCCN=C(N)N` [E-64], the Inhibition in data set [9] was 90%.

What is called half-life is the time needed for the level to fall by half in the phase considered. A high value points to slow decline. In the case of `CNC1CCN(C(=O)C[C@@H](Cc2ccccc2)C(=O)N[C@@H](CSC)C(=O)N[C@@H](CC2CCCCC2)[C@@H](O)C(=O)OC(C)C)CC1`, the half-inhibitory concentration (IC50) on Cathepsin D [10] turned out to be 550 nM; at Pepsin A, 2100 nM; at Renin [15], 4 nM. Further, the bioavailability in data set [11] is 59%; in data set [12] it was 60%; in [13], above 27%. In data set [14], the half-life is 2.4 h.

On to `CCCCNC(=O)C[C@H](O)[C@H](CC(C)C)NC(=O)[C@@H](NC(=O)Cc1ccc2ccccc2c1)C(C)CC` (stereo not given in full), for which the IC50 against Plasmepsin II worked out at 50 nM; at Cathepsin D [16] it was 320 nM.

Turning to `CC1CNc2c(cccc2S(=O)(=O)N[C@@H](CCCNC(=N)N)C(=O)N2CC[C@@H](C)C[C@@H]2C(=O)O)C1` (stereo not given in full) [ARGATROBAN], in the data set filed under Homo sapiens, the T1/2 was 40 h.

`CCCC[C@@H](C(=O)N[C@@H](CC1CCCCC1)[C@@H](O)C[C@H](C(=O)NCCC)C(C)C)N1CCN(C(=O)N2CCN(C)CC2)[C@H](Cc2ccccc2)C1=O`: the IC50 at Cathepsin D [17] worked out at 770 nM; in [18] it was 1.4 nM; against Renin [19] it was 7.1 nM.

As to `CCCCC(O)[C@H](C)C[C@H](O)[C@H](CC1CCCCC1)NC(=O)[C@H](CC(C)C)NC(=O)[C@H](Cc1ccccc1)NC(=O)OC(C)(C)C` (stereo not given in full), the 50% inhibitory concentration (IC50) on Plasmepsin I came out at 500 nM; in [21], 5000 nM. In data set [20], this compound displayed an inhibition of 22%.

What is called Tmax is the time from dosing to the highest level. What is called Cmax is the peak of the concentration-time curve. In the case of `CC(C)c1nc(CN(C)C(=O)N[C@H](C(=O)N[C@@H](Cc2ccccc2)C[C@H](O)[C@H](Cc2ccccc2)NC(=O)OCc2cncs2)C(C)C)cs1` [RITONAVIR], in data set [22], the bioavailability was determined as 78%. Moreover, the Tmax in data set [23] was determined as 2 h. This compound also gave a half-life in [24] of 1.2 h. The compound further registered a Cmax in data set [25] of 2600 nM.

In the case of `COc1cc(C(C)C)c2c(c1)S(=O)(=O)N(COC(=O)c1c(Cl)ccc(OCCN3CCOCC3)c1Cl)C2=O`, the Cmax in data set [26] is 470 ng/mL.

The compound `CC(=O)NC[C@@H](C=O)NC(=O)[C@H](Cc1ccccc1)NC(=O)[C@H](CC(C)C)NC(=O)OCc1ccccc1` (Cbz-Leu-Phe-[Dap](Ac)-aldehyde) gave a Ki in the data set with Enterovirus of 6 nM.

Take `O=C1C[C@H](NC(=O)[C@@H]2CCC[C@@H]3CCC[C@H](NC(=O)OCc4ccccc4)C(=O)N32)C(O)O1` (stereo not given in full): the IC50 was 36 nM on Caspase-1 and above 10000 nM against Caspase-3.

As for `CCCC[C@@H](C(=O)N[C@@H](CC1CCCCC1)[C@@H](O)C[C@H](C(=O)NCCN(C)C)C(C)C)N1CCN(C(=O)N2CCN(C)CC2)[C@H](Cc2ccccc2)C1=O`, the IC50 on Cathepsin D [17] is 58000 nM; in [27], 6.2 nM; against Renin [28], above 100 nM.

The record behind these values is ChEMBL document CHEMBL1133572, “Protease inhibitors: current status and future prospects” (J Med Chem, 2000).
